Reference: patent US11945822B2, “Pyrazolo-triazine and/or pyrazolo-pxrimidine derivatives as selective inhibitor of cyclin dependent kinase” (QURIENT CO., LTD., priority 2018, dated 2024)
Read-outs that look alike come from different tables or passages of the source.

How the values were obtained:
[1] = target: T1, CDK1/Cyclin B (Homo sapiens, UniProt P06493); assay: Enzymatic assay for CDK1 (FRET based LANCE Ultra kinase assay); type: biochemical
T1 construct: purchased Invitrogen PR4768C
How it was run: (§1)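 TR-FRET (LANCE Ultra) kinase assay at ATP Km, ULight-MBP peptide substrate (68 nM), 8-dose 4-fold compound series in DMSO. Enzymes: […]; 60 min at 23° C., stopped with EDTA plus Eu-anti-phospho-MBP antibody, read 665/615 nm after 60 min.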

[2] = target: T2, CDK7/Cyclin H/MNAT1 (Homo sapiens, UniProt P50613); assay: Enzymatic assay for CDK7 (FRET based LANCE Ultra kinase assay); type: biochemical
T2 construct: purchased Invitrogen PR6749B
How it was run: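 LANCE Ultra TR-FRET kinase assay using a ULight-labeled peptide substrate and a Eu-labeled anti-phospho antibody, with ATP at its Km. Purified CDK/cyclin complex was added to compound after brief centrifugation.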

[3] = target: T3, CDK5/p25 (Homo sapiens, UniProt Q00535); assay: Enzymatic assay for CDK5 (FRET based LANCE Ultra kinase assay); type: biochemical
T3 construct: purchased Invitrogen PR8543B
How it was run: as §1

[4] = test system: A2780; assay: Cellular A2780 viability assay (CellTiter-Glo, 72 hours); type: cell-based; details: Homo sapiens
Source text: Human T-cell acute lymphoblastic leukemia cell line, MOLT-4 (ATCC, Cat #CRL-1582), Human multiple myeloma cell line, RPMI-8226 (Invitrogen, Cat #22400-089) and MM.1S (ATCC, Cat #CRL-2974), NSCLC (Non-small cell lung cancer) cell line H460 (ATCC, Cat #HTB-177), Human colon colorectal carcinoma cell line HCT116 (ATCC, Cat #CCL-247), Human acute monocytic leukemia cell line MV4-11 (ATCC, Cat #CRL-9591), OVCAR-3 (ATCC, Cat #HTB-161) and A2780 (ECACC, Cat #93112519) were obtained from ATCC. Cells were grown in RPMI-1640 media (Invitrogen, Cat #22400-089) supplemented with 10% FBS (Invitrogen, Cat #10099141) and 1% penicillin/streptomycin (Invitrogen, Cat #15070063) and cultured at 37° C., 5% CO2 in a humidified chamber. All cell lines were routinely tested for mycoplasma.
The effect of the CDK7 inhibitor to inhibit the growth of target cancer cells was evaluated through the 72 hours time period of viability assay. Briefly, the candidate cell line ware plated in 96 well plate at the following density of cells respectively. 1×10^4 cells/well for MOLT-4, RPMI-8226, MV4-11 and MM.1S, 5×10^3 for H460, HCT116 and OVCAR-3 and IX 10^3 for A2780. After 24 hours, the cells were treated with various concentrations of the compound (ranging from 0.0015 uM to 10 uM). DMSO solvent without compound served as a control and final DMSO concentration less than 0.1%. After 72 hours of incubation at 37° C., 5% CO2 incubator, cells were analyzed for the viability using the CellTiter-Glo Luminescent Cell Viability Assay (Promega, Cat #G7570). All viability assays were performed in duplicate and Luminescence was read using an Envision (Perkin Elmer, USA). Data was analyzed using XLfit software.

[5] = test system: H460; assay: Cellular H460 viability assay (CellTiter-Glo, 72 hours); type: cell-based; details: Homo sapiens, NCI-H460
How it was run: (§2)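 Cells plated in 96 wells and exposed to compound 72 h at 37 °C, 5% CO2, final DMSO below 0.1%, DMSO control. Viability by CellTiter-Glo luminescence, duplicate.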

[6] = test system: MV4-11; assay: Cellular MV4-11 viability assay (CellTiter-Glo, 72 hours); type: cell-based; details: Homo sapiens
How it was run: as §2

[7] = target: T4, CDK2/Cyclin A (Homo sapiens, UniProt P24941); assay: Enzymatic assay for CDK2 (FRET based LANCE Ultra kinase assay); type: biochemical
T4 construct: purchased Invitrogen PV6290
How it was run: as §1

[8] = read-out: CDK1 enzymatic activity (IC50 range)
[9] = read-out: CDK7 enzymatic activity (IC50 range)
[10] = read-out: CDK5 enzymatic activity (IC50 range)
[11] = read-out: CDK2 enzymatic activity (IC50 range)
[12] = read-out: CDK1 enzymatic activity (IC50 activity range)
[13] = read-out: CDK7 enzymatic activity (IC50 activity range)
[14] = read-out: CDK5 enzymatic activity (IC50 activity range)
[15] = read-out: CDK2 enzymatic activity (IC50 activity range)

T3 sequence (Q00535 whole entry): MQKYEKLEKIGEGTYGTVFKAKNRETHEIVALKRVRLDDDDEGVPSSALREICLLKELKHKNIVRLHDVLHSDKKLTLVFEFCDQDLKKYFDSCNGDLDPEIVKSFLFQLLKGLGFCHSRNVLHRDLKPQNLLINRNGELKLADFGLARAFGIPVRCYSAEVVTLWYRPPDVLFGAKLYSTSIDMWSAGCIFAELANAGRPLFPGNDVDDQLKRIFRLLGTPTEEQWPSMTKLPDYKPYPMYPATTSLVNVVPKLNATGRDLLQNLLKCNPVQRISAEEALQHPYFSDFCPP
T3 sequence (Q15078 99-307 partner limits assumed): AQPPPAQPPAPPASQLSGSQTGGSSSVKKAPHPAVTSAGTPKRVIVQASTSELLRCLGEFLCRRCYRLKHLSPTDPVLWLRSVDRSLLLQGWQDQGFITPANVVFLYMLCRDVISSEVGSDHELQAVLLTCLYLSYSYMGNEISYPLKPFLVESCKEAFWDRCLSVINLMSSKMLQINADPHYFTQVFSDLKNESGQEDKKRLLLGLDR
T1 sequence (P06493 whole entry): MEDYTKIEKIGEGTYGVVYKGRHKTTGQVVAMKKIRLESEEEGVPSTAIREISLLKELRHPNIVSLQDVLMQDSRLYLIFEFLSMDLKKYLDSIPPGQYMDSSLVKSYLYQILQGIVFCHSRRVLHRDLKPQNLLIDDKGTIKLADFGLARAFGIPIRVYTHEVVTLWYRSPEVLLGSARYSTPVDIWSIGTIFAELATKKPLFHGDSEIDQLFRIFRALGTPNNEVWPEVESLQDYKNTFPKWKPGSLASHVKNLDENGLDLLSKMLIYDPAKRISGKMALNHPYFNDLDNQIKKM
T1 sequence (P14635 whole entry partner): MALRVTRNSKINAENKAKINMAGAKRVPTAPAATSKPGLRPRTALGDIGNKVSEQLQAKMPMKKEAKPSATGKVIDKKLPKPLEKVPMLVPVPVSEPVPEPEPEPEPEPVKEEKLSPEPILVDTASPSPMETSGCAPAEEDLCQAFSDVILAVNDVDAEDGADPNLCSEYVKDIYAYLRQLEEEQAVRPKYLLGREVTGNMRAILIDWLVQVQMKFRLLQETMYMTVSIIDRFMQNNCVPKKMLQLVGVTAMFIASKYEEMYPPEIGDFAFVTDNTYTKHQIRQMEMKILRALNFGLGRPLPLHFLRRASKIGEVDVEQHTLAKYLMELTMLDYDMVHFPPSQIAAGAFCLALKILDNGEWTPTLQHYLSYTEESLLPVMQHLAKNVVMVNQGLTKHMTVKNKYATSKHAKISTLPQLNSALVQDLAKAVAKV
T2 sequence (P50613 whole entry): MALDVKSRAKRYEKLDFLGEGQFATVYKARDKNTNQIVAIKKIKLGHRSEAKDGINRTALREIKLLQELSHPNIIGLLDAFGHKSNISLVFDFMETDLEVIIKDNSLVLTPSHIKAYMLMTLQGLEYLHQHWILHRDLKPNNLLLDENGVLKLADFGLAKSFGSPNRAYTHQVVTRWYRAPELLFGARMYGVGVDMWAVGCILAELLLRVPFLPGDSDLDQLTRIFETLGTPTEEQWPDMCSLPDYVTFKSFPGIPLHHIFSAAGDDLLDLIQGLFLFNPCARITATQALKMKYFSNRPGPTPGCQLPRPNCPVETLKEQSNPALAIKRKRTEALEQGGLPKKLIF
T2 sequence (P51946 whole entry partner): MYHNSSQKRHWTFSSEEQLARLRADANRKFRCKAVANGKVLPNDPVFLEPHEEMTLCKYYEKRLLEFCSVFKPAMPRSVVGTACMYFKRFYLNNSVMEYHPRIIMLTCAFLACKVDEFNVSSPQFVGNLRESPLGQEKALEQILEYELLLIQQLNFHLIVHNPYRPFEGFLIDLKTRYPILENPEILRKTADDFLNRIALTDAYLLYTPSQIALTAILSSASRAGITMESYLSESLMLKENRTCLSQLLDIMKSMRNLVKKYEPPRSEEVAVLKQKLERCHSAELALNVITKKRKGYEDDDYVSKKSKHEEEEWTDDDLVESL
T2 sequence (P51948 whole entry partner): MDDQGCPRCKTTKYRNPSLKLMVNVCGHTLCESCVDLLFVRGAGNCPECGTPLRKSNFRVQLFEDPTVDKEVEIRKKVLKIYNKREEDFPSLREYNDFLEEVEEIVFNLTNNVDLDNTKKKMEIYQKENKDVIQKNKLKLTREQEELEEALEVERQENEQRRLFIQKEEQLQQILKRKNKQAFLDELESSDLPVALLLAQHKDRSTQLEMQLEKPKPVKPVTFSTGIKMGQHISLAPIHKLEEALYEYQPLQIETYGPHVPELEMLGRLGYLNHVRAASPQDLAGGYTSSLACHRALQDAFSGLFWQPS

SMILES | IC50 [1, 8] | CDK1/CDK7: Selectivity of CDK7 inhibition over CDK1 inhibition ([2]; CDK7 over CDK1) | CDK2/CDK7: Selectivity of CDK7 inhibition over CDK2 inhibition ([2]; CDK7 over CDK2) | CDK5/CDK7: Selectivity of CDK7 inhibition over CDK5 inhibition ([2]; CDK7 over CDK5) | IC50 [2, 9] | IC50 [3, 10] | IC50 [4] | IC50 [5] | IC50 [6] | IC50 [7, 11] | IC50 [1, 12] | CDK1/CDK7: Selectivity of CDK7 inhibition over CDK1 inhibition ([2]; CDK1/CDK7) | CDK2/CDK7: Selectivity of CDK7 inhibition over CDK2 inhibition ([2]; CDK2/CDK7) | CDK5/CDK7: Selectivity of CDK7 inhibition over CDK5 inhibition ([2]; CDK5/CDK7) | IC50 [2, 13] | IC50 [3, 14] | IC50 [7, 15]
CC(C)c1cnn2c(NCc3c(Cl)cccc3-c3cc(C(C)(C)O)n(C)n3)nc(N3CCC(N)CC3)nc12 [Compound 244] | > 1000 nM | A (A=greater than 200 fold) | A (A=greater than 200 fold) | A (A=greater than 200 fold) | < 100 nM | > 1000 nM | ≤ 1000 nM | < 1000 nM | < 1000 nM | > 1000 nM |  |  |  |  |  |  | 
CC(C)c1cnn2c(NCc3ccccc3-n3cccn3)nc(N3CCc4ncccc4C3)nc12 [Compound 275] |  |  |  |  |  |  | 1000 to 10000 nM | 1000 to 10000 nM | 1000 to 10000 nM |  | > 1000 nM | A (A=greater than 200 fold) | B (B=less than 200 fold, but greater than 20 fold) | B (B=less than 200 fold, but greater than 20 fold) | < 100 nM | > 1000 nM | > 1000 nM
CC(C)c1cnn2c(NCc3c(Cl)cccc3-c3ncc(C(C)(C)O)s3)nc(N3CCC(N)CC3)nc12 [Compound 249] |  |  |  |  |  |  | ≤ 1000 nM | < 1000 nM | < 1000 nM |  | > 1000 nM | A (A=greater than 200 fold) | A (A=greater than 200 fold) | A (A=greater than 200 fold) | < 100 nM | > 1000 nM | > 1000 nM
CC(C)c1cnn2c(NCc3c(Cl)cccc3N3CC[C@H](C(C)(C)O)C3)nc(N3CCC(N)CC3)nc12 [Compound 250] |  |  |  |  |  |  | 1000 to 10000 nM | 1000 to 10000 nM | 1000 to 10000 nM |  | > 1000 nM | A (A=greater than 200 fold) | A (A=greater than 200 fold) | B (B=less than 200 fold, but greater than 20 fold) | < 100 nM | > 1000 nM | > 1000 nM
CC(C)c1cnn2c(NCc3ccccc3-c3ccc4cc(C(C)(C)O)ccc4n3)nc(N3CCC(O)(CN)CC3)nc12 [Compound 243] | > 1000 nM | A (A=greater than 200 fold) | A (A=greater than 200 fold) | A (A=greater than 200 fold) | < 100 nM | > 1000 nM | ≤ 1000 nM | < 1000 nM | < 1000 nM | > 1000 nM |  |  |  |  |  |  | 
CC(C)c1cnn2c(NCc3c(Cl)cccc3-c3ccc4ccccc4n3)nc(N3CCCC[C@H]3CO)nc12 [Compound 264] |  |  |  |  |  |  | > 10000 nM | > 10000 nM | > 10000 nM |  | > 1000 nM | B (B=less than 200 fold, but greater than 20 fold) | B (B=less than 200 fold, but greater than 20 fold) | B (B=less than 200 fold, but greater than 20 fold) | 100 to 1000 nM | > 1000 nM | > 1000 nM
CC(C)c1cnn2c(NCc3ccccc3-c3ccc4ccccc4n3)nc(N3CCCC[C@H]3CO)nc12 [Compound 263] |  |  |  |  |  |  | > 10000 nM | > 10000 nM | > 10000 nM |  | > 1000 nM | B (B=less than 200 fold, but greater than 20 fold) | B (B=less than 200 fold, but greater than 20 fold) | B (B=less than 200 fold, but greater than 20 fold) | 100 to 1000 nM | > 1000 nM | > 1000 nM
